Biological target: hCD36ecto (CD36ecto; human CD36 ectodomain) (Homo sapiens, UniProt P16671)
Experiment: isothermal titration calorimetry
Assay type: binding

hCD36ecto (CD36ecto; human CD36 ectodomain), sequence (P16671 30-439 limits assumed): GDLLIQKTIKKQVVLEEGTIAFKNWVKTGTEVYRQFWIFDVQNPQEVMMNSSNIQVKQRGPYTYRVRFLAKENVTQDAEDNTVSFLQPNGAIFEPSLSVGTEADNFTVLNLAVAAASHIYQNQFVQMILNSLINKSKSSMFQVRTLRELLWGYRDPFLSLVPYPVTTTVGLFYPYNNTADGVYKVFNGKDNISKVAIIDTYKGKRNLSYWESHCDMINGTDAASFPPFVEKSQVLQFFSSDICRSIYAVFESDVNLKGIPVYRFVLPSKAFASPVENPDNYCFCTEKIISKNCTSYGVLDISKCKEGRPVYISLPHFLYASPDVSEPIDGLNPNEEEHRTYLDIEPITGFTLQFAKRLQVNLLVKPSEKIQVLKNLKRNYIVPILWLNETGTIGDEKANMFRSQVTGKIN

C=CC1=C(C)C2=Cc3c(C=C)c(C)c4[n]3[Fe]([Cl])[n]3c(c(C)c(CCC(=O)O)c3=CC3=NC(=C4)C(C)=C3CCC(=O)O)=CC1=N2 [hemin]
Kd: 1260 ± 240 nM
